{
  "source": "patent US10709704B2",
  "about": "“Treating neural disease with tyrosine kinase inhibitors” (GEORGETOWN UNIVERSITY, priority 2012, dated 2020)",
  "system": "GFP-tagged TDP-43",
  "experiment": "Distribution of GFP-tagged TDP-43 in M17 cells",
  "assay_type": "cell-based, human",
  "parameters": "distribution of GFP-tagged TDP-43 / translocation of GFP-tagged TDP-43 with Nilotinib or Bosutinib: unit of the concentration uncertain",
  "method": "Human neuroblastoma M17 cells (seeding density 2×10^5 cells) were grown in 24 well dishes (Falcon) to 70% confluence in Dulbecco's Modified Eagle Medium (DMEM; Invitrogen) plus 10% (v/v) heat-inactivated fetal bovine serum (Invitrogen), penicillin/streptomycin, and 2 mM L-glutamine at 37° C. and 5% CO2, washed twice in phosphate-buffered saline (PBS). Transient transfection was performed with 3 μg parkin cDNA or 3 μg TDP-43 cDNA, or 3 μg LacZ cDNA. Cells were treated with 5 μM tubacin for 24 hours and DAPI stained in 12 well dishes. Cells were harvested 24 hours after transfection. Transfection was performed in DMEM without serum using Lipofectamine 2000 (Invitrogen) according to the manufacturer's protocol. […] Western blot was performed on NuPAGE 4-12% Bis-Tris gel (Invitrogen). Protein estimation was performed using the microscale BioRad protein assay (BioRad Laboratories Inc, Hercules, Calif., USA).\nTo ascertain that both parkin and HDAC6 are required for TDP-43 translocation, GFP-tagged TDP-43 was expressed in M17 neuroblastoma cells in the presence of wild type or loss-of-function mutant (T240R) parkin, and treated with 5 μM selective HDAC6 inhibitor for 24 hours.\nThe following data support these conclusions.",
  "data": [
    {"smiles": "O=C(CCCCCCC(=O)Nc1ccc([C@H]2O[C@@H](CSc3nc(-c4ccccc4)c(-c4ccccc4)o3)C[C@@H](c3ccc(CO)cc3)O2)cc1)NO", "note": "[Tubacin]", "values": [
      {"measurement": "GFP fluorescence (GFP-TDP-43) in the cytosol", "setting": "5 μM for 24 hours, presence or absence of parkin", "result": "did not lead to GFP fluorescence in the cytosol"},
      {"measurement": "translocation of GFP-tagged TDP-43 with Nilotinib or Bosutinib", "setting": "Tubacin (5 µM) for additional 24 hrs", "result": "impairs translocation"}
    ]}
  ]
}
